Measurements as given in US11779600B2, “Methods of treating or preventing alzheimer's disease and associated conditions” (CEDARS-SINAI MEDICAL CENTER, priority 2016, dated 2023).

System: OPN
Assay: Quantitative IHC of cerebral OPN expression in ADtg mice
Assay type: in vivo, mouse
Description: ADtg mice (10 months old) received subcutaneous injections of GA [also known as Cop-1 and Copaxone®; 100 μg in phosphate-buffered saline (PBS)] or PBS alone (control group) twice a week for 1 week and then once a week for 8 weeks. For evaluation of innate immune infiltration to the brain by flow cytometry, 10-month-old ADtg mice received subcutaneous injections of GA ([…] in PBS) or PBS alone twice a week for 1 week and then once a week for 3 weeks. At the end of the study, all mice were anaesthetized and then perfused with ice-cold PBS with 0.5 mM EDTA, after which their organs were collected and analyzed or fixed in 2.5% paraformaldehyde (Sigma-Aldrich), and cryoprotected with 30% sucrose for further histological analysis. CD115^+ monocytes from mice donors were isolated as previously reported (Koronyo et al., Brain: a journal of neurology 2015,138:2399-2422). […] For microscopic analysis, we used a Carl Zeiss Axio Imager Z1 fluorescence microscope equipped with ApoTome (Carl Zeiss MicroImaging, Inc.). […] The number and area (μm^2) of OPN+ cells, Iba1^+CD45^hi cells, GFAP^+ cells, Thio-S^+ amyloid-βplaques and 4G8^+ amyloid-βplaques were determined by examining four to six coronal sections per mouse at 150-μm intervals over an area covering both the hippocampal and cortical (including entorhinal and cingulate cortex) regions. […]

glatiramer acetate [GA]
cerebral OPN expression in comparison to PBS controls (quantitative IHC, symptomatic ADtg mice, 2 months treatment (FIG. 11B)): 1.5 times | increase in total OPN expression per Aβ-plaque area (ratio of total OPN area to plaque area, total brain regions (FIG. 11D)): 2.6 fold
